Source: patent US6767921B2, “Polymorphic forms of fasidotril, their methods of preparation and pharmaceutical compositions comprising them” (Bioproject, priority 2002, dated 2004)
Blank lines part the entries; values can stand above or below the molecule they belong to.

Test: thermodynamic stability of the polymorphic crystalline forms of Fasidotril
Assay type: physicochemical
Excerpt: It has been discovered that Fasidotril can exist in various polymorphic crystalline forms which differ from each other in their physical and spectroscopic properties, their zones of thermodynamic stability and their methods of preparation. Four of these novel forms are described below and will be designated as form I, form II, form III and form IV, respectively.
It is shown that among these four forms, forms I and II are stable at low and high temperature, respectively, while forms III and IV are unstable and can be easily converted to the stable form I or II depending on the operating conditions chosen.
It is also shown that it is possible to convert form I to form II and to convert form II to form I depending on the operating conditions chosen.

stability of the polymorphic form (at low temperature): stable
Structure (SMILES): CC(=O)SC[C@@H](Cc1ccc2c(c1)OCO2)C(=O)N[C@@H](C)C(=O)OCc1ccccc1 [form I, benzyl (S,S)-2-(2-acetylsulphanylmethyl-3-benzo[1,3]dioxol-5-ylpropionylamino)propionate]

stability of the polymorphic form (at high temperature): stable
Structure (SMILES): CC(=O)SC[C@@H](Cc1ccc2c(c1)OCO2)C(=O)N[C@@H](C)C(=O)OCc1ccccc1 [form II, benzyl (S,S)-2-(2-acetylsulphanylmethyl-3-benzo[1,3]dioxol-5-ylpropionylamino)propionate]

stability of the polymorphic form (can be easily converted to the stable form I or II depending on the operating conditions): unstable
Structure (SMILES): CC(=O)SC[C@@H](Cc1ccc2c(c1)OCO2)C(=O)N[C@@H](C)C(=O)OCc1ccccc1 [form III, benzyl (S,S)-2-(2-acetylsulphanylmethyl-3-benzo[1,3]dioxol-5-ylpropionylamino)propionate]
